Source: ChEMBL document CHEMBL1150600, “Callyspongynic acid, a polyacetylenic acid which inhibits alpha-glucosidase, from the marine sponge Callyspongia truncata” (J Nat Prod, 2002)
Calls of active or inactive are those of the source. The calls are words filed in the database; no cut-off is given here.

Tests used:
[1] = Inhibition of trypsin at 100 ug/ml
[2] = biological target: T1, Cytosolic beta-glucosidase (Homo sapiens) (UniProt Q9H227); assay: Inhibition of beta-glucosidase at 100 ug/ml
T1 sequence (whole entry): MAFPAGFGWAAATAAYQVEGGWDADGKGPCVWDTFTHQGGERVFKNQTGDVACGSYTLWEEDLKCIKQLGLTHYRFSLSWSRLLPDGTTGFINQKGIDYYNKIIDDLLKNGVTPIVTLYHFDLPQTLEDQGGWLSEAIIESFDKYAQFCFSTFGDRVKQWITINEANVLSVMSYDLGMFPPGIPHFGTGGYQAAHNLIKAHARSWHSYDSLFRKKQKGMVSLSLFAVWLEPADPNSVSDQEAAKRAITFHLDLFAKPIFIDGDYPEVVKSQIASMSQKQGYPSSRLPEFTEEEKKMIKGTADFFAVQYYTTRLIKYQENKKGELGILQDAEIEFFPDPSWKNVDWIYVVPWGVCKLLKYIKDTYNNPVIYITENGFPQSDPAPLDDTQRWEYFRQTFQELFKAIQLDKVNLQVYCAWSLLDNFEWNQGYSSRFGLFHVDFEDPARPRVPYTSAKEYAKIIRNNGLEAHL

[3] = biological target: Prothrombin (Homo sapiens) (UniProt P00734); assay: Inhibition of thrombin at 100 ug/ml
[4] = biological target: T2, Beta-galactosidase (Homo sapiens) (UniProt P16278); assay: Inhibition of beta-galactosidase at 100 ug/ml
T2 sequence (whole entry): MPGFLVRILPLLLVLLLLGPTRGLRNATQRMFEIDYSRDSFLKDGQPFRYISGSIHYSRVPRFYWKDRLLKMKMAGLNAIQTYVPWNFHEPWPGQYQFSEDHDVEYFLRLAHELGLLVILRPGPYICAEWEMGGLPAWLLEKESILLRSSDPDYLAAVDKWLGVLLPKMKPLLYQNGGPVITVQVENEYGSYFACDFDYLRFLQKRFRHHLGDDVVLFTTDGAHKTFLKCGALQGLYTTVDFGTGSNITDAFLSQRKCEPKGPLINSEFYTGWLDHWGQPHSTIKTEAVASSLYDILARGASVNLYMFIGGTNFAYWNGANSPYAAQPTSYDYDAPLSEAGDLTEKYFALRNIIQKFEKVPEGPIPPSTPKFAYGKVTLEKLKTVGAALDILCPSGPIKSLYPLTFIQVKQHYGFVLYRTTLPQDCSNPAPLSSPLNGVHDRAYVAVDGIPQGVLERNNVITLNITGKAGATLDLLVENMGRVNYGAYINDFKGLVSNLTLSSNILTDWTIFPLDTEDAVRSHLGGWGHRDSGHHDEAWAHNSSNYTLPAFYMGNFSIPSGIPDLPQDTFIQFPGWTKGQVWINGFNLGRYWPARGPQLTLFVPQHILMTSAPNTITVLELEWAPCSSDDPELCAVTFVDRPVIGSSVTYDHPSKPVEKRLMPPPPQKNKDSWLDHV

[5] = tested on: alpha-glucosidase (Saccharomyces cerevisiae); assay: Inhibition of alpha-glucosidase at 100 ug/ml after 30 mins

Activity [1]	Activity [2]	Activity [3]	Activity [4]	Activity [5]	Structure (SMILES)
inactive	inactive	inactive	inactive		C#C[C@@H](O)/C=C/CCCCCC#CC#CCCCC#CCCCC#CCCCCCC#CC(=O)O
				inactive	C#C[C@@H](O)/C=C/CCCCCC#CC#CCCCC#CCCCC#CCCCCCC#CC(=O)OC
				inactive	C#C/C=C\CCCC#CC#CCCCCCC/C=C\C#C
